Assay results from patent US20230192705A1, “SHP2 INHIBITORS, COMPOSITIONS AND USES THEREOF” (Betta Pharmaceuticals Co., Ltd, priority 2020, published 2023).

Tests used:
hERG channel = target: T1, hERG channel (Homo sapiens, UniProt Q12809); assay: Patch clamp assay to test the effect of compound on hERG channel; format: cell-based; details: manual patch clamp, HEK 293 cells expressed with hERG, concentration for half maximum effect
T1 construct: expressed in transfected cells; host or cells: HEK-293
Description: 10 mL extracellular solution was used to dilute the stock solution, making the final concentrations of test compound were 0.3 μM, 1 μM, 3 μM, 10 μM and 30 μM.
The solubility of compound was visually observed.
The cell line was derived from HEK-293 cells, and grown in a humidified environment at 37° C. under 5% CO2, using the media formulation below. The cell line should not be allowed to exceed 80% confluence within the culture vessel to prevent contact inhibition causing senescence and should thus be passaged every 3/4 days using a seeding density of 2*10^6 cells per T175 flask. Cell lines were be pre-washed with phosphate buffered saline before harvesting with Trypsin/EDTA and seeded into new flasks.
HEK 293 cells expressed with hERG were plated on cover slips overnight with the cell density less than 50% of confluence. Cells used for electrophysiological study were transferred to a small cell bath (1 mL) mounted on the stage of an inverted microscope (Diaphot, Nikon) and were perfused with external solution containing (in mM) 130 NaCl, 4 KCl, 1.8 CaCl2), 1 MgCl2, 10 glucose and 10 HEPES (pH 7.4 with NaOH), the perfusion rate was 4 mL/min. The internal pipette solution contained (in mM) 130 KCl, 1 MgCl2, 5 ethylene glycol-bis(baminoethyl ether)-N,N,N8,N8-tetraacetic acid, 5 MgATP and 10 HEPES (pH 7.2 with KOH). An HEKA EPC-10 patch-clamp amplifier and PATCHMASTER acquisition program were used to record membrane currents (HEKA Instruments IncD-67466 Lambrecht/Pfalz Germany). All experiments were performed at room temperature (22-23° C.).
The Model P-97 micropipette puller (Sutter Instrument Company, One Digital Drive, Novato, Calif. 94949) was used to pull glass patch pipettes (BF150-86-10) in all experiments.
The experiments were initiated with a 2 min vehicle control period after forming a whole cell configuration with less 5% run-down in 5 min and the tail currents in the report were at least greater than 500 pA. After a 2 min vehicle control period, the perfusion was switched to the reservoir containing the compound at the first concentration. The same procedure was repeated 3-5 times so that each cell was exposed to 4-6 escalating concentrations of compound. The time courses for block and unblock of hERG during compounds exposure and washout were continuously recorded.
The peak tail of hERG was generated by applying 2-sec depolarizing every 12 sec steps from a holding potential of −80 mV, the peak of tail currents were measured at a 5-sec repolarizing pulse at −50 mV.
hERG peak tail currents were directly measured from a 5 sec repolarization pulse at −50 mV. The fraction of control current was plotted as a function of logarithm of compound concentration. To determine the concentration of compound for halfmaximum effect, the concentration-response curve was fitted by Hill equation as shown follow.
where Y is the observed value, Bottom is the lowest observed value (0), Top is the highest observed value (1), and the Hillcoefficient gives the largest absolute value of the slope of the curve.
Data were analyzed by a combination of PATCHMASTER ((HEKA Instruments IncD-67466 Lambrecht/Pfalz Germany) and Origin (OriginLab Corporation, Northampton, Mass.) software programs.
Data were expressed as mean±SEM.

[1] = In vitro metabolic stability in human liver microsome; format: in vitro ADME; details: human liver microsomes
Description: (§1) 1900 mg MgCl2 was dissolved into a final volume of 400 mL ultra-pure water.
(§2) 17.42 g K2HPO4 and 13.65 g KH2PO4 were dissolved into a final volume of 1000 mL ultra-pure water, respectively. K2HPO4 and KH2PO4 were mixed to prepare 100 mM potassium phosphate (PBS) buffer. The pH value of the final solution was adjusted to pH 7.30±0.10.
(§3) Cold ACN (including 10 ng/mL Labetalol and 10 ng/mL Glibenclamid) was stored at 4° C.
(§4) Working Solution Preparation:
(§5) Verapamil (positive control) and test compound stock solution were diluted into a concentration of 50 μM and 200 μM respectively, using MeOH/ACN/H2O solution (1:1:2, v/v/v).
(§6) 1) 40 μL MgCl2 and 306 μL PBS were added to 96 plate wells (blank, compound wells, compounds without NADPH wells)
(§7) 2) 4 μL compound working solution was added to above wells (blank: 4 μL PBS buffer) (Note: the volume of DMSO in final incubation system ≤0.5%)
(§8) 3) 10 μL microsomes (20 mg/mL) was added in each well. The mixture was warmed up for 10 minutes at 37.0° C.
(§9) 4) 40 μL 10 mM NADPH working solution was added to start reaction. The total volume was 400 μL.
(§10) 5) Aliquots of 50 μL samples were taken from the reaction solution at 0, 5, 15, 45 min. The reaction solutions were stopped by the addition of 400 μL stop solution.
(§11) 6) The sampling plates were shaked for approx. 5 min.
(§12) 7) Samples were centrifuged at 3200 rcf for 10 min. then transferred 50 μL to a new plate dilute with 200 μL H2O for LC/MS/MS analysis.
(§13) Use equation of first order kinetics to calculate t1/2 and CL: […]
(§14) Where k represents elimination constant, which is calculated from a log linear plot of % Remaining versus time. t1/2 represents the half-life. Cprotein is the concentration of liver microsomes.

[2] = In vitro metabolic stability in rat liver microsome; format: in vitro ADME; details: rat liver microsomes
Description: as §1, §2, §3, §4, §5, §6, §7, §8, §9, §10, §11, §12, §13, §14

SHP2 = target: T2, SHP2 (Homo sapiens, UniProt Q06124); assay: SHP2 allosteric inhibitor enzyme activity assay (DiFMUP fluorescence); format: biochemical
T2 sequence (Q06124 1-593): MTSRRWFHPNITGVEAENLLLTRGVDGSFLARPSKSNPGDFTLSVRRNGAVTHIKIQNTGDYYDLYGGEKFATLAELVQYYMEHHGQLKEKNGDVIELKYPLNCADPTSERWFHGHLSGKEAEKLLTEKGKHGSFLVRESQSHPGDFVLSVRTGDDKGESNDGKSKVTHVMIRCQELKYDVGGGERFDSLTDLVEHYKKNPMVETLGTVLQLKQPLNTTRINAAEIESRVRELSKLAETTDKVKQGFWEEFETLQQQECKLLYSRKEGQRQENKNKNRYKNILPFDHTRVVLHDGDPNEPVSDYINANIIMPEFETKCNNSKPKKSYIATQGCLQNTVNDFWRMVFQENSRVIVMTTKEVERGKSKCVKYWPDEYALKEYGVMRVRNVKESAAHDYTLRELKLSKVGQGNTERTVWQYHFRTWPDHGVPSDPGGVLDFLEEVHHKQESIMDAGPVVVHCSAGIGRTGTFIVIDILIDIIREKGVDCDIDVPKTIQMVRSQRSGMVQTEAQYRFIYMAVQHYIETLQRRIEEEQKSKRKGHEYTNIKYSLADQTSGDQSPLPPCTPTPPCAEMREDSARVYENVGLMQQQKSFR
Outline: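 SHP2 activated by 0.5 μM IRS1_pY1172(dPEG8)pY1222 peptide, 0.2 ng enzyme per well, 1 h at room temperature with compound (1 μM top, 3-fold series), then DiFMUP substrate 1 h. Buffer: 60 mM HEPES, 75 mM NaCl, 75 mM KCl, 0.05% BRIJ-35, 1 mM EDTA, 5 mM DTT. Fluorescence ex 340/em 450 nm; IC50 by variable-slope fit.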

T1 sequence (Q12809 whole entry): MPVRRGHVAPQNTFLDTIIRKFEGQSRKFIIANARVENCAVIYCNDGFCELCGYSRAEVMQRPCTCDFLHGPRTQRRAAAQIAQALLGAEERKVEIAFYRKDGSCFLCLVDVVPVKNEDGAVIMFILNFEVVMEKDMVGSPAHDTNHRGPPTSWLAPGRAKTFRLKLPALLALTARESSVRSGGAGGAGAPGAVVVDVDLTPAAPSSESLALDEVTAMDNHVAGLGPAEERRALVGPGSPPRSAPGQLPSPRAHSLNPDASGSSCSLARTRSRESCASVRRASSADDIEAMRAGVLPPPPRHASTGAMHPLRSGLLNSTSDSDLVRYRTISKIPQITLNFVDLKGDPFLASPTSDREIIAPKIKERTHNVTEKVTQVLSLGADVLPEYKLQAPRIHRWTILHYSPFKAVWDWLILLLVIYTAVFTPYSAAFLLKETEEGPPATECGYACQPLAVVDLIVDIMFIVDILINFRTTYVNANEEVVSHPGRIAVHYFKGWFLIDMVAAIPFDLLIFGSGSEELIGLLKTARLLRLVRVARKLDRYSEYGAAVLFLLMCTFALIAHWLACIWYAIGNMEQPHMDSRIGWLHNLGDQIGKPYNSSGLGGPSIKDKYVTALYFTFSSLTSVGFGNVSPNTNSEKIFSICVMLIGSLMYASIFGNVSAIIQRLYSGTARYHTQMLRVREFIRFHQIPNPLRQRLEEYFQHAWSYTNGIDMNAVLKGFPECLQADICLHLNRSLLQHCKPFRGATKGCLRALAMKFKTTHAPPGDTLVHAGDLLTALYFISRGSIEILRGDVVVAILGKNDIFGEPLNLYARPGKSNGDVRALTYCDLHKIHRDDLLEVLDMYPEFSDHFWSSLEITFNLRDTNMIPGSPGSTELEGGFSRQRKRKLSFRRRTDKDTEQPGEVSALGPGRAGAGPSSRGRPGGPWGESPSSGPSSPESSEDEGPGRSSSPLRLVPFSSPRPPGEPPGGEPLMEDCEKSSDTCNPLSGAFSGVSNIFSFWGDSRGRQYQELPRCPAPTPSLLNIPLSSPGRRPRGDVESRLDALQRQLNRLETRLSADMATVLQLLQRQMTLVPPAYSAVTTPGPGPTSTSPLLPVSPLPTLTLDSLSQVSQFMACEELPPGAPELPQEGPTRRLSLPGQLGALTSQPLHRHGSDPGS

Structure (SMILES) | IC50 (hERG channel) | CLint Human [1] | CLint Rat [2] | IC50 (SHP2; numeric values) | IC50 (SHP2; class symbols)
Cn1c(N2CCC3(CC2)Cc2ccccc2[C@H]3N)nc2[nH]nc(Sc3cccc(Cl)c3Cl)c2c1=O [Comparative compound 1, reference compound] | 90 nM | 171.8 μL/min/mg proteins | 89.9 μL/min/mg proteins | – | –
N[C@@H]1c2ccccc2CC12CCN(c1nc3[nH]nc(C4(Cc5ccccc5)CC4)c3c(=O)[nH]1)CC2 [Example 74] | 1840 nM | 182.7 μL/min/mg proteins | 102.0 μL/min/mg proteins | – | –
CC(C)(c1ccccc1)c1n[nH]c2nc(N3CCC4(CC3)Cc3ccccc3[C@H]4N)[nH]c(=O)c12 [Example 216, (S)-6-(1-amino-1,3-dihydrospiro[indene-2,4′-piperidin]-1′-yl)-3-(2-phenylpropan-2-yl)-1,5-dihydro-4H-pyrazolo[3,4-d]pyrimidin-4-one] | – | 50.0 μL/min/mg proteins | 32.5 μL/min/mg proteins | 1.1 nM | –
N[C@@H]1c2ccccc2CC12CCN(c1nc3[nH]nc(C4(c5ccc(OC(F)(F)F)cc5)CC4)c3c(=O)[nH]1)CC2 [Example 233, (S)-6-(1-amino-1,3-dihydrospiro[indene-2,4′-piperidin]-1′-yl)-3-(1-(4-(trifluoromethoxy)phenyl)cyclo-propyl)-1,5-dihydro-4H-pyrazolo[3,4-d]pyrimidin-4-one] | – | 0.2 μL/min/mg proteins | 3.4 μL/min/mg proteins | – | ≤ 20 nM
